# Measurements taken from the supplement of paper PMC12463676, “Small-molecule dissolution of stress granules by redox modulation benefits ALS models” (Nature Chemical Biology, 2025).
# Assays:
# [1] = compound: NC(=O)CCCCC1CCSS1 [lipoamide]; assay: thermal stability z-score vs DMSO; higher = more thermally stabilized by treatment; details: HeLa, lipoamide concentration 100 µM
# Procedure: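 Cellular thermal proteome profiling in HeLa cells. Cells were treated with 100 µM lipoamide for 1 h, with or without 1 mM arsenate for a further 1 h, then heated to ten temperatures (37-66.3 °C), and soluble protein was quantified by TMT mass spectrometry relative to 0.1% DMSO controls. The thermal stability score (sum of log2 fold changes minus the abundance score) was transformed to a z-score; mean of n = 3 experiments.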
# [2] = compound: O=[As]([O-])(O)O.[K+] [potassium arsenate]; assay: as above; details: HeLa; arsenate concentration 1 mM
# Procedure: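 Cellular thermal proteome profiling in HeLa cells treated with 1 mM arsenate for 1 h (DMSO pretreatment), heated to ten temperatures (37-66.3 °C). Soluble protein was quantified by TMT mass spectrometry relative to DMSO controls; the thermal stability score was transformed to a z-score; mean of n = 3 experiments.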
# [3] = arsenate co-treatment: 1 mM arsenate 1 h
# 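Also: each temperature applied for 3 min, abundance score taken as mean log2 fold change at the two lowest temperatures, z-score obtained by mean subtraction and division by SD.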
# Chain of UniProt Q5ZPR3 (Q5ZPR3 whole entry): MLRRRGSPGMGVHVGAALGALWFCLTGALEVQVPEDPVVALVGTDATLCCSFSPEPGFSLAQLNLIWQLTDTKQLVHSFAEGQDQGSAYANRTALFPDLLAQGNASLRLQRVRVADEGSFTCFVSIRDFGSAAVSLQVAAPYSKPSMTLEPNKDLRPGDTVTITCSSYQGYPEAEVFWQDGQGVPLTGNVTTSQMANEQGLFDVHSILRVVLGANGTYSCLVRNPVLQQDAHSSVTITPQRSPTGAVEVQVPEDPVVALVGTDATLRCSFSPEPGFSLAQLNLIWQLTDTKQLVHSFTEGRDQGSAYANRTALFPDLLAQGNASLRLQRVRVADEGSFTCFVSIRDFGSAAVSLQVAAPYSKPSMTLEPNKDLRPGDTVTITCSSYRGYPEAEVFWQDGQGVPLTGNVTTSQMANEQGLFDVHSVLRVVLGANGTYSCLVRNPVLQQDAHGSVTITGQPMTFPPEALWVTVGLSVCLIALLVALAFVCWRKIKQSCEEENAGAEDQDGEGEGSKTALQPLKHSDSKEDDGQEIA
# Chain of UniProt P30154 (P30154 whole entry): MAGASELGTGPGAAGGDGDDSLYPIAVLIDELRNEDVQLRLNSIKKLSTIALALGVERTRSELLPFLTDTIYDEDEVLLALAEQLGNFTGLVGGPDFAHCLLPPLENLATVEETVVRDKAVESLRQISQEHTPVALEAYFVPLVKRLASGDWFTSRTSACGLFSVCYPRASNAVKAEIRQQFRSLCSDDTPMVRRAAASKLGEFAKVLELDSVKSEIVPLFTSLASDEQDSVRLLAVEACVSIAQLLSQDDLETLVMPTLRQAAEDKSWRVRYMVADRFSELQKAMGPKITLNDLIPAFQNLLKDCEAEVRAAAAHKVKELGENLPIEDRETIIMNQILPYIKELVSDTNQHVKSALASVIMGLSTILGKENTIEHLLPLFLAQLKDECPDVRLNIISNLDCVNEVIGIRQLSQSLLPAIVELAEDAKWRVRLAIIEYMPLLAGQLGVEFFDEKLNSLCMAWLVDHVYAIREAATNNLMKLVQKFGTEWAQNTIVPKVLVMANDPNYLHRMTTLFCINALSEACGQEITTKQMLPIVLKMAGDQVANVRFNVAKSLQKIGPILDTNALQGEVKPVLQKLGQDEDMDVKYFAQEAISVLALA
# Chain of UniProt P05423 (P05423 whole entry): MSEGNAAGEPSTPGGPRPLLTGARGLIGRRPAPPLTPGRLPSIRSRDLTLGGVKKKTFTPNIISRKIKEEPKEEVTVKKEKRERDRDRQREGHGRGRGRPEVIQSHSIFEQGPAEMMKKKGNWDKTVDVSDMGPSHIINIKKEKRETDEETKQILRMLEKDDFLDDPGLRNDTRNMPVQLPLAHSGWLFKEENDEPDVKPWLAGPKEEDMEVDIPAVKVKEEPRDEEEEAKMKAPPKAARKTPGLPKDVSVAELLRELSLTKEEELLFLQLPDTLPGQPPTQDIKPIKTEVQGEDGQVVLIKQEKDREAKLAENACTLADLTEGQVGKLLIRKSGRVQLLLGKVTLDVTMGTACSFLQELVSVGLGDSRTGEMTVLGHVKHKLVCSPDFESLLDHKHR
# Chain of UniProt P19838 (P19838 whole entry): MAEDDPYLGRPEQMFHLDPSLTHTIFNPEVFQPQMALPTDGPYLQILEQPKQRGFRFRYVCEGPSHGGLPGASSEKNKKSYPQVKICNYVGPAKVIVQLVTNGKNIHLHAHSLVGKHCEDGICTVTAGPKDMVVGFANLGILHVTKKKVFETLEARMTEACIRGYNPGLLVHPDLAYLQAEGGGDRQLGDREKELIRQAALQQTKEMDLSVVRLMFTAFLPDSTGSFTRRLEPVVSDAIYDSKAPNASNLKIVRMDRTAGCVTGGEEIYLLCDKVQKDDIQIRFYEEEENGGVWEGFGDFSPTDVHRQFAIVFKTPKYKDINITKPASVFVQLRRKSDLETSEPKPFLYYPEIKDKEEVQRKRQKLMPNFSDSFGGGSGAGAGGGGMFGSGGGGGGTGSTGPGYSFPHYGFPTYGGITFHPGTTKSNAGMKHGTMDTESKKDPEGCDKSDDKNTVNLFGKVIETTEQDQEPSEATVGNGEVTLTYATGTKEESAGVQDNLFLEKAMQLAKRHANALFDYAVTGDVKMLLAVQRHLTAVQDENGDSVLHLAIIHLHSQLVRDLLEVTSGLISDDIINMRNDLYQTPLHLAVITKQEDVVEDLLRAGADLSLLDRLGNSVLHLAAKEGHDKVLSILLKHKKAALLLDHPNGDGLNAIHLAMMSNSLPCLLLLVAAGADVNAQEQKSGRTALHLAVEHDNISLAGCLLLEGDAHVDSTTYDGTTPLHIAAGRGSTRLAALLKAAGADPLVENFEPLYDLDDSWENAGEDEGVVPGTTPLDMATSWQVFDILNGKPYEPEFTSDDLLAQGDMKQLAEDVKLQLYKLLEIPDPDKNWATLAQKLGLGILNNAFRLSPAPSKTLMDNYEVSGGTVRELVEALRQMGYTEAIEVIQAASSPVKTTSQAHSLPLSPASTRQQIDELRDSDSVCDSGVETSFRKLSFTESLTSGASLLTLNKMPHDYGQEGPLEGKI
# Chain of UniProt Q14151 (Q14151 whole entry): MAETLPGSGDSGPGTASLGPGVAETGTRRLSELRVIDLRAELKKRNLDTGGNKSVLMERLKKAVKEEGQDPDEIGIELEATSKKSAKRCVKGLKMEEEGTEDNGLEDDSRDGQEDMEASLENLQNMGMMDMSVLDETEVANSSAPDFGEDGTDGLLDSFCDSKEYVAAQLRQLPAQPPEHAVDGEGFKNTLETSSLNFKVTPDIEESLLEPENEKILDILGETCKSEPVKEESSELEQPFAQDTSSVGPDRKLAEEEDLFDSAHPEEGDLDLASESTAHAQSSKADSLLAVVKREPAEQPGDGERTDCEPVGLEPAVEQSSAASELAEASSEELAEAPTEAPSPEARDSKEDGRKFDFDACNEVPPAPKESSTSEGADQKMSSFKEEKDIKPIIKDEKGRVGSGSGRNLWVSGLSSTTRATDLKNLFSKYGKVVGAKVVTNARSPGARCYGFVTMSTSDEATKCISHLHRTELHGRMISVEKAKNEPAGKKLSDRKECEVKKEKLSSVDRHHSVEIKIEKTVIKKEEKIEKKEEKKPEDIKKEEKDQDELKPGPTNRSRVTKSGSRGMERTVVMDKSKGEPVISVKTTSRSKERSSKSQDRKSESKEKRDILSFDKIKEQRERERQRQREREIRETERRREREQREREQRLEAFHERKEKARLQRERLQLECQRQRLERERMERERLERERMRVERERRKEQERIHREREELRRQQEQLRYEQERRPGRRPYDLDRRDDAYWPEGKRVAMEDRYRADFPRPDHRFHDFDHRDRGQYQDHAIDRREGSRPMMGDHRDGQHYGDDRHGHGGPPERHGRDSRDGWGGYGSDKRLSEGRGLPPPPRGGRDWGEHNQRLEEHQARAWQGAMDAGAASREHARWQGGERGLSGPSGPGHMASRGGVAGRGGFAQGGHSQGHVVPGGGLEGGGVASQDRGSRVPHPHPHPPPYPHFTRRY
# Chain of UniProt Q7L2E3 (Q7L2E3 whole entry): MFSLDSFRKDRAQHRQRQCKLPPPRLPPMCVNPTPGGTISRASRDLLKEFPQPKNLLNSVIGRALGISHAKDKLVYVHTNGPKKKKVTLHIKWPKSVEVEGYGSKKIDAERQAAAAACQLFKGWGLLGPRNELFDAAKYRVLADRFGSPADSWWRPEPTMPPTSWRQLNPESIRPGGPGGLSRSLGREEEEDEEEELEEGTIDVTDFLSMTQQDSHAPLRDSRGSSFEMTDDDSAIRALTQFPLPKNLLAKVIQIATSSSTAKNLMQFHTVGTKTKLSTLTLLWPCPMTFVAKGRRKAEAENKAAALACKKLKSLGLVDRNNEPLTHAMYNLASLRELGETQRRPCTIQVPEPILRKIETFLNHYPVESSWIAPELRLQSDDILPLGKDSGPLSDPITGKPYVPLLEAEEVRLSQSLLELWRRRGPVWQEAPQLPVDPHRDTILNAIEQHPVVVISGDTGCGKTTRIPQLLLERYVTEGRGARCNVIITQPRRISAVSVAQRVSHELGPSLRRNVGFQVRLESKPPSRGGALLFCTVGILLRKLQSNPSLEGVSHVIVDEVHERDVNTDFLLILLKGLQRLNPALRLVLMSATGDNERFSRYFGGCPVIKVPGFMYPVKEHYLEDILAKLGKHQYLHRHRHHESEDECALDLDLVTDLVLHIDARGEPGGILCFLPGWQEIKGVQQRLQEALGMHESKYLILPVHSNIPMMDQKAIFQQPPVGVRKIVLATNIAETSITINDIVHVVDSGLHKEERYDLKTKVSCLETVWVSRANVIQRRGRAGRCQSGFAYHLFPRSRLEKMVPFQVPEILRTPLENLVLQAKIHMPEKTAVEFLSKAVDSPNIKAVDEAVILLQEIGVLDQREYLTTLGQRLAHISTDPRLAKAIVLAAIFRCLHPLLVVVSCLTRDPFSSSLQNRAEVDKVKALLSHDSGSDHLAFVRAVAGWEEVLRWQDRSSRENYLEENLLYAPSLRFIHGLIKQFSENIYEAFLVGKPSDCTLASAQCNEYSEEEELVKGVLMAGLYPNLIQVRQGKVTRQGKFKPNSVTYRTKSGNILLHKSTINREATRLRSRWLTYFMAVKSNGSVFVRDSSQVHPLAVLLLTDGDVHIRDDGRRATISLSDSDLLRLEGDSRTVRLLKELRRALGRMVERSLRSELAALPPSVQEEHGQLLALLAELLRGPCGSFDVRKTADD
# Chain of UniProt Q9UNL2 (Q9UNL2 whole entry): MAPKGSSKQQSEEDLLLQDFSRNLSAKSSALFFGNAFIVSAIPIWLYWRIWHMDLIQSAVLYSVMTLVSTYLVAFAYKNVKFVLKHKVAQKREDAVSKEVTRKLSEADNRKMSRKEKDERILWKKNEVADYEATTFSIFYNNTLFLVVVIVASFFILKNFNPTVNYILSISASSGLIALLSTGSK
# Chain of UniProt O43181 (O43181 whole entry): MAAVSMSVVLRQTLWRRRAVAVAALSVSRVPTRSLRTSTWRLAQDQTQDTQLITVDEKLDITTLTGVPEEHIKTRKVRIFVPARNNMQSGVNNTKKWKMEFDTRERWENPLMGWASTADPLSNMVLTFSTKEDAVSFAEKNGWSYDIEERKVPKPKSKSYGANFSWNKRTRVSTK
Target,"thermal stability z-score [1, 3]",thermal stability z-score ([1]; arsenate co-treatment: none),thermal stability z-score [2]
CD276 (UniProt Q5ZPR3),0.196,-0.174,0.000316
NDUFS4 (UniProt O43181),0.511,0.477,0.201
AP3D1 (UniProt O14617),-0.494,-0.336,0.577
GUK1 (UniProt Q16774),0.321,0.714,0.29
HECTD4 (UniProt Q9Y4D8),-0.345,0.341,0.284
ACO1 (UniProt P21399),0.259,-0.252,-0.945
SPTAN1 (UniProt Q13813),0.768,0.506,-1.44
CNOT1 (UniProt A5YKK6),-0.186,0.0688,1.04
CCDC12 (UniProt Q8WUD4),0.646,0.397,-0.605
LBR (UniProt Q14739),-0.0763,-0.097,0.0853
SRSF11 (UniProt Q05519),0.00966,0.41,0.0211
TMX2 (UniProt Q9Y320),-1.05,-2.85,-1.96
GORASP2 (UniProt Q9H8Y8),0.45,-0.749,0.824
NIPBL (UniProt Q6KC79),-0.0211,-0.00358,-0.167
MYO5C (UniProt Q9NQX4),0.173,0.236,0.0128
ARL8B (UniProt Q9NVJ2),-0.122,-0.507,-0.267
MPZL1 (UniProt O95297),0.0579,0.206,0.179
PSIP1 (UniProt O75475),0.499,0.761,-0.306
XPNPEP3 (UniProt Q9NQH7),-0.37,0.018,-0.646
NELFA (UniProt Q9H3P2),-0.1,-0.0674,-0.107
RPL13A (UniProt P40429),0.328,0.16,-0.496
TMCO3 (UniProt Q6UWJ1),-0.807,-1.31,0.2
DHX30 (UniProt Q7L2E3),-0.306,0.192,-0.391
PPP2R1B (UniProt P30154),0.0372,-0.0931,0.107
SEC13 (UniProt P55735),0.378,0.46,0.729
MSLN (UniProt Q13421),-0.583,-0.696,-2.44
TMEM192 (UniProt Q8IY95),-0.861,0.064,-0.137
NFKB1 (UniProt P19838),0.0975,0.14,-0.274

Target,"thermal stability z-score [1, 3]",thermal stability z-score ([1]; arsenate co-treatment: none),thermal stability z-score [2]
FAM49B (UniProt Q9NUQ9),0.4,0.0941,0.0541
TEX30 (UniProt Q5JUR7),0.373,-0.174,-0.411
TMEM126A (UniProt Q9H061),0.676,0.815,0.231
CCS (UniProt O14618),1.32,0.653,3.23
TOR1B (UniProt O14657),-2.23,-2.79,1.11
RHBDF2 (UniProt Q6PJF5),-0.0324,-0.158,0.166
BTN3A2 (UniProt P78410),0.00462,0.0294,-1.15
AHCYL1 (UniProt O43865),0.156,-0.134,-6.61
SAFB2 (UniProt Q14151),1.41,0.112,-0.545
POLR3D (UniProt P05423),0.483,-0.501,-1.56
HEXA (UniProt P06865),-0.146,-0.412,-0.0764
PHGDH (UniProt O43175),1.08,0.761,-2.42
HEBP1 (UniProt Q9NRV9),0.436,0.615,-0.000791
HDAC2 (UniProt Q92769),4.76,4.53,-0.0176
UBL7 (UniProt Q96S82),0.396,0.433,0.168
RARS (UniProt P54136),-0.341,-0.305,0.39
A0A087WZ62,0.00979,0.224,0.358
RC3H1 (UniProt Q5TC82),-0.195,-0.0428,-0.351
DDX1 (UniProt Q92499),0.085,0.274,-0.304
POLR1A (UniProt O95602),0.371,-0.00373,-2.59
CTDP1 (UniProt Q9Y5B0),-0.373,-0.652,-0.903
SSR3 (UniProt Q9UNL2),-0.665,-0.443,0.0314
RANBP9 (UniProt Q96S59),-0.364,-0.234,-0.508
BLZF1 (UniProt Q9H2G9),-0.0966,0.122,-0.103
MAST2 (UniProt Q6P0Q8),-0.0733,-0.0383,0.00193
CCNB1 (UniProt P14635),0.729,0.477,1.43
VANGL1 (UniProt Q8TAA9),0.696,0.817,-0.242
